Test results as given in PubChem BioAssay AID2082 (Sanford-Burnham Center for Chemical Genomics, 2009).

Biological target: Tyrosine-protein phosphatase non-receptor type 7 (Homo sapiens) (UniProt P35236)
Experiment: off-target HePTP activity blockade – biochemical, DiFMUP fluorescence, selectivity assay for VHR1 inhibitor project, SAR follow-up (AID 2082)
Settings: recombinant HePTP

Sequence of Tyrosine-protein phosphatase non-receptor type 7 (Homo sapiens) (P35236 whole entry, looked up): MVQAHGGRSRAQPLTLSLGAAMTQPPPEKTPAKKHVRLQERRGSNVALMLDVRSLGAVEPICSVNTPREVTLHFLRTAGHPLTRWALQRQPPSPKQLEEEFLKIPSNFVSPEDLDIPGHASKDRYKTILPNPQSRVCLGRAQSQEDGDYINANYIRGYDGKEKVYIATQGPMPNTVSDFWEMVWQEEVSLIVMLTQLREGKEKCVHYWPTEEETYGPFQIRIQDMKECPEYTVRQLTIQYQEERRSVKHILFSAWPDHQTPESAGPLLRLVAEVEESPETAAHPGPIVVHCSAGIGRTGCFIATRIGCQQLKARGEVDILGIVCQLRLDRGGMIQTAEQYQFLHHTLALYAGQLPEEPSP

Row | SMILES | IC50
1 | O=C1/C(=C/c2cn(-c3ccccc3)nc2-c2ccc(S(=O)(=O)N3CCCCC3)cc2)SC(=S)N1CCS(=O)(=O)O | 2400 nM
2 | O=C1/C(=C/c2cn(-c3ccccc3)nc2-c2ccc(OCc3ccccc3F)cc2)SC(=S)N1CCS(=O)(=O)O | 870 nM
3 | O=C1/C(=C/c2cn(-c3ccccc3)nc2-c2ccc(OCc3ccccc3Cl)cc2)SC(=S)N1CCS(=O)(=O)O | 1200 nM
4 | O=C1/C(=C/c2cn(-c3ccccc3)nc2-c2ccc(OCc3ccc(Cl)cc3)cc2)SC(=S)N1CCS(=O)(=O)O | 620 nM
5 | O=C1/C(=C/c2cn(-c3ccccc3)nc2-c2ccc(OCc3ccccc3)cc2)SC(=S)N1CCS(=O)(=O)O | 1500 nM
